ChEMBL document CHEMBL4387769 (Bioorg Med Chem, 2019)

Tests used:
[1] = target: T1, 5-hydroxytryptamine receptor 7 (Homo sapiens, UniProt P34969); test: Binding affinity to 5HT7 (unknown origin)
[2] = target: T2, 5-hydroxytryptamine receptor 1A (Homo sapiens, UniProt P08908); test: Displacement of [3H]-8-OH-DPAT from human 5HT1AR expressed in HEK293 cell membranes after 1 hr by microbeta plate reader method
T2 sequence (P08908 whole entry): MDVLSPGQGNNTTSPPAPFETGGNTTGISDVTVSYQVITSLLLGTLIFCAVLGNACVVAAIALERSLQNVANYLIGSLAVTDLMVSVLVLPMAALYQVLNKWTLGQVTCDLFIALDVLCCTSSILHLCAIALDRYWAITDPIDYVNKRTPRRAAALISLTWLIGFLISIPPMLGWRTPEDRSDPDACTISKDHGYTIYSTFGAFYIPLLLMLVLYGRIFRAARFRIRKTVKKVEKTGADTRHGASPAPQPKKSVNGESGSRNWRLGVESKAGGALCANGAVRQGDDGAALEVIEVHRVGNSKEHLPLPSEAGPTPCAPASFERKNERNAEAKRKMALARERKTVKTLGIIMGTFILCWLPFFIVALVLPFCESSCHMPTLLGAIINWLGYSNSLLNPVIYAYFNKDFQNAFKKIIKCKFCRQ

[3] = target: T1, 5-hydroxytryptamine receptor 7; test: Displacement of [3H]5-CT from human 5HT7B receptor expressed in HEK293 cell membranes after 1 hr by microbeta plate reader method
[4] = target: 5-hydroxytryptamine receptor 6 (Homo sapiens, UniProt P50406); test: Displacement of [3H]LSD from human 5HT6 receptor expressed in HEK293 cell membranes after 1 hr by microbeta plate reader method
5-hydroxytryptamine receptor 6, sequence (P50406 whole entry): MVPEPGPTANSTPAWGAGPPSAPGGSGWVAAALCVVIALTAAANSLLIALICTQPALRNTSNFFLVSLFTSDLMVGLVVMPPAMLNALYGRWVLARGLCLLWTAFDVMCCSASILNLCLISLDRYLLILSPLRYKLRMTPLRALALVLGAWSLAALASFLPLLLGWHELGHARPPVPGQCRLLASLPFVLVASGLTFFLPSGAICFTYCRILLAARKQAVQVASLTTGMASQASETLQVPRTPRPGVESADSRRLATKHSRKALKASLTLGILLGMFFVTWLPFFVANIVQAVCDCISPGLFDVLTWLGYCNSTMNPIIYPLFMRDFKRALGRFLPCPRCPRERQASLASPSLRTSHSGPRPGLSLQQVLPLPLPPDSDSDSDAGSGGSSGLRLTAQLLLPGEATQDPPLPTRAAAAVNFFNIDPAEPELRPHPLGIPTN

[5] = target: 5-hydroxytryptamine receptor 2A (Homo sapiens, UniProt P28223); test: Displacement of [3H]ketanserin from human 5HT2AR expressed in CHO-K1 cell membranes after 1 hr by microbeta plate reader method
5-hydroxytryptamine receptor 2A (Homo sapiens, UniProt P28223), sequence (P28223 whole entry): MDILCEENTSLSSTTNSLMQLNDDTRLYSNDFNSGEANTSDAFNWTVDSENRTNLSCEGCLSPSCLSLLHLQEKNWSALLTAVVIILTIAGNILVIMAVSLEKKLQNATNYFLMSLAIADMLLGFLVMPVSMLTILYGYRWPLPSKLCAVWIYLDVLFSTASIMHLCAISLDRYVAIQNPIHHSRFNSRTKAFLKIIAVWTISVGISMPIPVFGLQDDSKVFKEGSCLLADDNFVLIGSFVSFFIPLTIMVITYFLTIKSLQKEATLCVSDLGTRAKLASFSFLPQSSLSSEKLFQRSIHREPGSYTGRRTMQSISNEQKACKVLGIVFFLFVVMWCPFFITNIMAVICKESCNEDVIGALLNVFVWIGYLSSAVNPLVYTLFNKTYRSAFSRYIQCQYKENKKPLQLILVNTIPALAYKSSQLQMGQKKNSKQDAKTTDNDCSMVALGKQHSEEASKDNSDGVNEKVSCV

[6] = target: D(2) dopamine receptor (Homo sapiens, UniProt P14416); test: Displacement of [3H]raclopride from human dopamine D2L receptor expressed in HEK293 cells incubated for 1 hr by microbeta plate reader method; format: cell-based
D(2) dopamine receptor (Homo sapiens, UniProt P14416), sequence (P14416 whole entry): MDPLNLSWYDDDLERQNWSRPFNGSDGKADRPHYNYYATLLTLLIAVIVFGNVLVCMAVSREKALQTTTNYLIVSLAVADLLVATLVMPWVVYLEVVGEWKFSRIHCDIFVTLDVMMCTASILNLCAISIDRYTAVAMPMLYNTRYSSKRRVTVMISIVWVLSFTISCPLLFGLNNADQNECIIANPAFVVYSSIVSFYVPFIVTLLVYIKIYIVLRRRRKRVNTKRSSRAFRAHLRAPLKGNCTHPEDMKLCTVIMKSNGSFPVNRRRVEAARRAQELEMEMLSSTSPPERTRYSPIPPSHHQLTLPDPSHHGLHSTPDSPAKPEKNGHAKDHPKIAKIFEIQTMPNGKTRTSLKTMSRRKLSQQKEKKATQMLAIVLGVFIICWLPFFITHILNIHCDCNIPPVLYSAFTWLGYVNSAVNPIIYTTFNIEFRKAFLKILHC

[7] = target: D(2) dopamine receptor (Rattus norvegicus, UniProt P61169); test: Displacement of [3H]spiperone from dopamine D2 receptor in Sprague-Dawley rat striatal membranes incubated for 40 mins; parameters: species or system Striatum, Membrane
D(2) dopamine receptor (Rattus norvegicus, UniProt P61169), sequence (P61169 whole entry): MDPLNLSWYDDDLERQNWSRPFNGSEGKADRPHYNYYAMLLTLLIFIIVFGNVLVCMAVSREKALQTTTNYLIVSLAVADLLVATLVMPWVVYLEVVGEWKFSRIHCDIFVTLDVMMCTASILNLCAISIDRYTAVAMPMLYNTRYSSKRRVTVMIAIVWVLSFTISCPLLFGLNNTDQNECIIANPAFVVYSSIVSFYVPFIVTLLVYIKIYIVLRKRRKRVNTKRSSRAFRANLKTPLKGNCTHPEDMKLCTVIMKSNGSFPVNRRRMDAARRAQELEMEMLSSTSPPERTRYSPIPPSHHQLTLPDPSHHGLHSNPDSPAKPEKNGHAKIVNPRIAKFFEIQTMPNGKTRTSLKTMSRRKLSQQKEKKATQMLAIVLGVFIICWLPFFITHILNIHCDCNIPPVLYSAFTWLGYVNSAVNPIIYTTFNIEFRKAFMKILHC

[8] = target: 5-hydroxytryptamine receptor 2A (Rattus norvegicus, UniProt P14842); test: Displacement of [3H]ketanserin from 5HT2A receptor in rat cortical membranes incubated for 15 mins by liquid scintillation spectrometry; format: cell membranes
5-hydroxytryptamine receptor 2A (Rattus norvegicus, UniProt P14842), sequence (P14842 whole entry): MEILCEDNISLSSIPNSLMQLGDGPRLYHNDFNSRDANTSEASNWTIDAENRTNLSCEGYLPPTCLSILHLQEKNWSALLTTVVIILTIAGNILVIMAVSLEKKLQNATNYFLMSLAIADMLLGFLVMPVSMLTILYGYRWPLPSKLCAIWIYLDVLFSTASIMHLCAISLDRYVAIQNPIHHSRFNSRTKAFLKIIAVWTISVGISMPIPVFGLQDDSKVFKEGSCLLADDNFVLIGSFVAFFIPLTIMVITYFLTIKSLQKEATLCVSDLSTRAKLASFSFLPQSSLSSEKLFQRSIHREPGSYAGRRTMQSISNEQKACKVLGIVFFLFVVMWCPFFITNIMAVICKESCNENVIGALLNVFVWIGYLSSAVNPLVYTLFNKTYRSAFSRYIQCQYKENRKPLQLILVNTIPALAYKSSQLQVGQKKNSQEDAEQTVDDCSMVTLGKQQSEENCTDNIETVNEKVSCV

[9] = target: T1, 5-hydroxytryptamine receptor 7; test: Displacement of [3H]5-CT from human 5HT7 receptor expressed in COS7 cells incubated for 30 mins by liquid scintillation counting method; format: cell-based

T1 sequence (P34969 whole entry): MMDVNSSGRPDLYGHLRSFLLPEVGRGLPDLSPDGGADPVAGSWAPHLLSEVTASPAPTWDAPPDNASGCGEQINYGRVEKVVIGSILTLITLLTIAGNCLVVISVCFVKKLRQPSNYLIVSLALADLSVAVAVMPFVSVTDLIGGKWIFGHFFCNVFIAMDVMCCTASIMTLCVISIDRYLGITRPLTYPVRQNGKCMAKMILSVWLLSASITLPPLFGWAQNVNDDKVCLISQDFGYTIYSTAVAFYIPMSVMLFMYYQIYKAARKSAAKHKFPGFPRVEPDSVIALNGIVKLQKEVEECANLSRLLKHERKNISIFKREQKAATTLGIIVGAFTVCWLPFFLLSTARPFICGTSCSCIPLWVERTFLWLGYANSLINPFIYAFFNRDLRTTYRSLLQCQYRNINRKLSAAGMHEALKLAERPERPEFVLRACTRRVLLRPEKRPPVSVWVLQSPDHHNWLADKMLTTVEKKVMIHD

Ki [1]	Ki [2]	Ki [3]	Ki [4]	Ki [5]	Ki [6]	Ki [7]	Ki [8]	Ki [9]	Compound
1000 nM	–	–	–	–	–	–	–	–	O=S1(=O)c2cccc3cccc(c23)N1CCCCN1CCN(c2ccccc2)CC1
–	64 nM	420 nM	1730 nM	524 nM	320 nM	–	–	–	O=C1c2cccc3cccc(c23)N1CCCCCCN1CCN(c2ccccc2F)CC1
–	66 nM	336 nM	1680 nM	540 nM	58 nM	–	–	–	O=C1c2cccc3cccc(c23)N1CCCCCCN1CCN(c2ccccc2Cl)CC1
–	79 nM	404 nM	225 nM	251 nM	254 nM	–	–	–	O=S1(=O)c2cccc3cccc(c23)N1CCCCCCN1CCN(c2ccc(Cl)c(Cl)c2)CC1
–	46 nM	432 nM	624 nM	322 nM	121 nM	–	–	–	O=S1(=O)c2cccc3cccc(c23)N1CCCCCCN1CCN(c2cccc(Cl)c2)CC1
200 nM	–	–	–	–	–	–	–	–	O=S1(=O)c2cccc3cccc(c23)N1CCCCCN1CCN(c2ccccc2)CC1
–	–	–	–	–	–	> 1000 nM	7 nM	–	O=S1(=O)c2cccc3cccc(c23)N1CCCN1CCN(c2ccc(Br)cc2)CC1
–	–	–	–	–	–	> 1000 nM	5 nM	–	O=S1(=O)c2cccc3cccc(c23)N1CCCN1CCN(c2ccc(Cl)cc2)CC1
–	688 nM	1830 nM	3190 nM	1490 nM	204 nM	–	–	–	O=C1c2cccc3cccc(c23)N1CCCCCCN1CCN(c2ccc(Br)cc2)CC1
–	43 nM	53 nM	480 nM	429 nM	75 nM	–	–	–	O=C1c2cccc3cccc(c23)N1CCCCCCN1CCN(c2cccc(Cl)c2)CC1
251 nM	–	–	–	–	–	–	–	–	COc1ccccc1N1CCN(CCCCCN2c3cccc4cccc(c34)S2(=O)=O)CC1
–	149 nM	140 nM	237 nM	177 nM	220 nM	–	–	–	O=S1(=O)c2cccc3cccc(c23)N1CCCCCCN1CCN(c2cccc(Cl)c2Cl)CC1
200 nM	–	–	–	–	–	–	–	–	COc1ccccc1N1CCN(CCCCN2c3cccc4cccc(c34)S2(=O)=O)CC1
> 1000 nM	–	–	–	–	–	–	–	–	O=S1(=O)c2cccc3cccc(c23)N1CCCCCCN1CCN(c2ccccc2)CC1
–	106 nM	286 nM	507 nM	548 nM	142 nM	–	–	–	O=S1(=O)c2cccc3cccc(c23)N1CCCCCCN1CCN(c2ccccc2Cl)CC1
–	122 nM	5100 nM	918 nM	406 nM	94 nM	–	–	–	O=C1c2cccc3cccc(c23)N1CCCCCCN1CCN(c2cccc(Cl)c2Cl)CC1

Ki [1]	Ki [2]	Ki [3]	Ki [4]	Ki [5]	Ki [6]	Ki [7]	Ki [8]	Ki [9]	Compound
–	599 nM	17800 nM	1130 nM	1770 nM	161 nM	–	–	–	O=C1c2cccc3cccc(c23)N1CCCCCCN1CCN(c2ccccc2C(F)(F)F)CC1
–	–	–	–	–	–	–	–	20 nM	COc1ccc(N2CCN(CCCCC34CCCc5cccc(c53)NC4=O)CC2)cc1 (configuration not stated)
200 nM	–	–	–	–	–	–	–	–	COc1ccccc1N1CCN(CCCCCCN2c3cccc4cccc(c34)S2(=O)=O)CC1
–	132 nM	167 nM	374 nM	596 nM	304 nM	–	–	–	O=S1(=O)c2cccc3cccc(c23)N1CCCCCCN1CCN(c2cccc(C(F)(F)F)c2)CC1
–	–	–	–	–	–	–	–	12 nM	O=C1Nc2cccc3c2C1(CCCCN1CCN(c2ccccc2Cl)CC1)CCC3 (configuration not stated)
–	–	–	–	–	–	> 1000 nM	18 nM	–	O=S1(=O)c2cccc3cccc(c23)N1CCCN1CCN(c2cccc(F)c2)CC1
–	536 nM	49000 nM	2040 nM	4350 nM	945 nM	–	–	–	O=C1c2cccc3cccc(c23)N1CCCCCCN1CCN(c2ccc(C(F)(F)F)cc2)CC1
–	–	–	–	–	–	> 1000 nM	–	–	O=S1(=O)c2cccc3cccc(c23)N1CCCN1CCN(c2ccc(F)cc2)CC1 [FANANSERIN]
–	–	–	–	–	–	> 1000 nM	3 nM	–	O=S1(=O)c2cccc3cccc(c23)N1CCCN1CCN(c2ccccc2F)CC1
–	81 nM	203 nM	710 nM	376 nM	90 nM	–	–	–	O=S1(=O)c2cccc3cccc(c23)N1CCCCCCN1CCN(c2ccccc2F)CC1
–	161 nM	166 nM	1860 nM	493 nM	246 nM	–	–	–	O=C1c2cccc3cccc(c23)N1CCCCCCN1CCN(c2ccc(Cl)c(Cl)c2)CC1
–	989 nM	6000 nM	937 nM	1530 nM	927 nM	–	–	–	O=S1(=O)c2cccc3cccc(c23)N1CCCCCCN1CCN(c2ccc(C(F)(F)F)cc2)CC1
–	181 nM	124 nM	689 nM	423 nM	197 nM	–	–	–	O=C1c2cccc3cccc(c23)N1CCCCCCN1CCN(c2ccc(Cl)cc2)CC1
–	54 nM	291 nM	2210 nM	773 nM	496 nM	–	–	–	O=C1c2cccc3cccc(c23)N1CCCCCCN1CCN(c2cccc(C(F)(F)F)c2)CC1
–	197 nM	280 nM	433 nM	147 nM	336 nM	–	–	–	O=S1(=O)c2cccc3cccc(c23)N1CCCCCCN1CCN(c2ccc(Cl)cc2)CC1
